Results reported in patent publication US9498451B2, “Method for treating or preventing radiation damage” (Beijing Institute of Transfusion Medicine, Academy of …, priority 2013, dated 2016).
Entries after “also recorded” stand apart in the source; their conditions may differ.

Assays:
[1] = system: mice radiated by 60Co γ-ray with a lethal dosage; assay: Survival rate of mice radiated by 60Co γ ray with a lethal dosage (8.0 Gy) and injected with TA01; type: in vivo, mouse (male C57BL/6); details: 8.0 Gy 60Co whole body irradiation, vs control group
Procedure: 50 male C57BL/6 mice were subjected to whole body irradiation by ^60Co ray with a dosage rate of 1.56 Gy/min and an irradiation dosage of 8.0 Gy. The radiated mice were divided into 5 groups randomly, each group having 10 mice. The 5 groups were injected with TA01 with dosages of 0 mg/kg (control group), 1.25 mg/kg, 2.5 mg/kg, 5 mg/kg and 10 mg/kg, respectively. The injection was performed every three days and continued for 12 days, and the solvent of the injection was a PBS solution. Then, these mice were observed and survival rates of these mice were calculated.
FIG. 2 is a diagram showing survival rates (rates of survival) of mice radiated by ^60Co γ-ray with a lethal dosage and subcutaneously injected with different dosages of TA01.

[2] = system: mice radiated by 60Co γ-ray with a sub-lethal dosage; assay: Contents of WBC, RBC and PLT in peripheral blood of mice radiated by 60Co γ-ray with a sub-lethal dosage (6.5 Gy); type: in vivo, mouse (male C57); details: 2.5 mg/kg every three days for 5 times, vs PBS group
Procedure: 10 male C57 mice were subjected to whole body irradiation by ^60Co γ ray with a dosage rate of 1.56 Gy/min and an irradiation dosage of 6.5 Gy. The radiated mice were divided into 2 groups randomly, a PBS group having 5 mice and a TA01 group having 5 mice. Every mouse in the TA01 group was injected with 2.5 mg/kg (body weight) TA01 every three days for 5 times, and the solvent of the injection was a PBS solution. Every mouse in the PBS group was treated with the same process as the TA01 group, with the exception that the injection amount of TA01 was 0, in other words, only the PBS solution was injected. After different days for treating, each group of the mice was subjected to a cutting-tail process to collect 20 μL blood which was subsequently added with 2 mL blood cell dilution (commercially available from Jinan Bolai Biotechnology Co., Ltd).
FIG. 3 is diagrams showing contents of WBC, RBC and PLT in peripheral blood of mice radiated by ^60Co γ-ray with a sub-lethal dosage and injected subcutaneously with TA01 or PBS (control) at different time points.

[3] = system: hemopoietic stem/progenitor cells in bone marrow; assay: Number of hemopoietic stem/progenitor cells (CFU, CFU-G, CFU-GM, CFU-MK) in bone marrow of sub-lethally radiated mice; type: in vivo, mouse (male C57/BL6); details: 6.5 Gy; 2.5 mg/kg every three days; bone marrow on 7th day, 7 days culture; vs control group
Procedure: 6 male C57/BL6 mice were subjected to whole body irradiation by ^60Co γ ray with a dosage rate of 1.56 Gy/min and an irradiation dosage of 6.5 Gy. The radiated mice were divided into 2 groups randomly, a PBS group having 3 mice and a TA01 group having 3 mice. Every mouse in the TA01 group was injected with 2.5 mg/kg TA01 (body weight) every three days, the solvent of the injection was a PBS solution with pH from 7.5 to 8.5. TA01 injection dosage for the PBS group was 0, in other words, only the PBS solution was injected. On the 7th day after the subcutaneous injection, bone marrow blood was collected from each mouse into respective 10 mL tubes pretreated with heparin (commercially available from Tianjing Haoyang Biological Product Technology Limited Liability Company). After the bone marrow blood was mixed with the heparin uniformly, fresh PBS (commercially available from Hyclone Company) was added therein up to 5 mL. After mixing, a uniform mixture of blood and PBS was obtained. Mouse lymphocyte separation medium (commercially available from Tianjing Haoyang Biological Product Technology Limited Liability Company) were subjected to pre-aliquot in centrifuge tubes each having 5 mL of the lymphocyte separation medium (operating in a super clean bench). Then the uniform mixture was gently added on the top of the lymphocyte separation medium, after which a centrifuge was performed at 1500 rpm/min for 20 min. The intermediate layer of cells in a white color was sucked into a new 10 mL centrifuge tube, which was then added with PBS up to 10 mL followed by a mixing and centrifuge at 1500 rpm/min for 5 min. Then obtained upper PBS was removed, and the tube was added with fresh PBS up to 10 ml followed by a mixing and centrifuge at 1500 rpm/min for 5 min. Then the upper PBS was removed, and the tube was added with fresh PBS up to 1 mL followed by a mixing, which was then subjected to a cell number counting. After calculating the number of single nucleus per mL blood, the blood was mixed uniformly with 500 μL semisolid medium (including 0.9% methylcellulose, 15% fetal bovine serum, 100 U/ml penicillin/streptomycin, 1 mM sodium pyruvate, 2 mM glutaminate, 2 mM PFHM II, 200 m/ml transferrin, 1% BSA, 0.45 mM MTG, 30% IMDM, 50 ng/ml SCF, 10 ng/ml TPO, 10 ng/ml IL-3, 10 ng/ml IL-11, 10 ng/ml GM-CSF and 3 U/ml EPO), and cultured in an incubator containing 5% CO2 at 37° C. After 7 days, hematopoietic colony-forming unit (CFU), granulocyte colony-forming unit (CFU-G), granulocyte and macrophage colony-forming unit (CFU-GM) and megakaryocyte colony-forming unit (CFU-MK) were counted respectively, and the results were shown in FIG. 4. […]

[4] = system: mice radiated by 60Co γ-ray with a lethal dosage; assay: HE staining of intestinal, hepatic and pulmonary tissues of mice radiated by 60Co γ-ray with a lethal dosage (8.0 Gy); type: in vivo, mouse (male C57/BL6); details: 2.5 mg/kg every three days, vs PBS group
Procedure: 6 male C57/BL6 mice were subjected to whole body irradiation by ^60Co γ ray with a dosage rate of 1.56 Gy/min and an irradiation dosage of 8.0 Gy. The radiated mice were divided into 2 groups randomly, a PBS group (control) having 3 mice and a TA01 group having 3 mice. Every mouse in the TA01 group was injected with 2.5 mg/kg TA01 (body weight) every three days, the solvent of the injection was a PBS solution with pH of 7.4. TA01 injection dosage for the PBS group was 0, in other words, only the PBS solution was injected. The mice both two groups were sacrificed by dislocation on the 10th day and the 14th day after the irradiation, respectively. The intestinal, hepatic and pulmonary tissues were collected, fixed with 4% paraformaldehyde and formed into paraffin sections. The paraffin sections were subjected to HE staining, so as to obserse repairing conditions of the intestinal, hepatic and pulmonary tissues, and the results were shown in FIGS. 5 and 6.
FIG. 5 is diagrams showing results of hematoxylin-eosin staining with intestinal tissues of mice radiated by ^60Co γ-ray with a lethal dosage and treated with TA01 or PBS.
FIG. 6 is diagrams showing results of hematoxylin-eosin staining with hepatic and pulmonary tissue of mice radiated by ^60Co γ-ray with a lethal dosage and treated with TA01 or PBS.

## CN(C)CCN(CCN(C)C)CCN(C)C [TA01, tris(2-(dimethylamino)ethyl)amine]
[1]; TA01 1.25 mg/kg every three days for 5 times
  survival rate: significantly increased
[1]; TA01 2.5 mg/kg every three days for 5 times, 2.5 mg/kg
  survival rate: significantly increased; also recorded: best survival rate
[1]; TA01 5 mg/kg every three days for 5 times
  survival rate: significantly increased
[1]; TA01 10 mg/kg every three days for 5 times
  survival rate: significantly increased
[2]; on the 4th, 7th and 21st day
  content of WBC in peripheral blood: significantly increased
[2]; on the 4th, 14th, 21st and 28th day
  content of PLT in peripheral blood: significantly increased
[2]; on the 21st day
  content of RBC in peripheral blood: most obviously increased
[3]
  number of CFU-G in bone marrow: increased obviously
  number of CFU-GM in bone marrow: increased obviously
  number of CFU-MK in bone marrow: increased obviously
  number of total colony-forming units (CFU) in bone marrow: increased significantly
[4]; 10th and 14th day
  repair of intestinal tissue (HE staining): improve repairs
[4]
  repair of hepatic tissue (HE staining): improve repairs
  repair of pulmonary tissue (HE staining): improve repairs
